Laboratory results published in patent US20230278997A1, “BICYCLO[1.1.1]PENTANE COMPOUNDS FOR THE TREATMENT AND PROPHYLAXIS OF HEPATITIS B VIRUS INFECTION” (Hoffmann-La Roche Inc., priority 2020, published 2023).

Experiments:
HBsAg = test: microbe, parasite or virus in culture; type: cell-based, HBV; conditions: Hepatitis B virus, read-out: HBsAg IC50
HBeAg = test: microbe, parasite or virus in culture; type: cell-based, HBV; conditions: Hepatitis B virus, read-out: HBeAg IC50
[1] = tested on: primary human hepatocyte (PHH); test: Cytotoxicity in PHH natural infection assay (Cell Counting Kit-8); type: cell-based; conditions: therapeutic index; CC50 by CCK8 in PHH over HBsAg IC50
Procedure: Detailed procedures regarding primary human hepatocyte (PHH) HBV natural infection assay are described as below. One tube of frozen PHH (10 million cells) was thawed in 37° C. water bath and then transferred to 20 mL of PHH thawing medium (Sigma, InVitroGRO HT Medium, Cat. 503319) with gently mixing. The cells were then centrifuged at […] for 5 min, the supernatant was discarded and the tube was refilled with 25 mL of PHH plating medium (Sigma, InVitroGRO CP Medium, Cat. 503317). The tube was shaken very gently to re-suspend all cells, and then 50 μl of cells were transferred to each well of a 384-well collagen I coated plate with appropriate liquid handling equipment, e.g. Integra VIAFLO384 or Agilent Bravo. The cells were then cultured for 24 hours in a cell incubator. For HBV infection, after PHH attachment on the culture plate, the plating medium was removed and replenished with PHH culture medium containing HBV virus. The PHH culture medium was prepared with Dulbecco's Modified Eagle Medium (DMEM)/F12 (1:1 in volume ratio) containing 10% fetal bovine serum (Gibco, Cat.10099141), 5 ng/mL human epidermal growth factor (Gibco, Cat.PHG031 IL), 20 ng/mL dexamethasone (Sigma, Cat.D4902-100 mg), 250 ng/mL human recombinant insulin (Gibco, Cat.41400045) and 100 U/mL penicillin. HBV virus at 200 genome equivalent (GE) per cell with 4% PEG8000 (Sigma, Cat.P1458) containing culture medium were added to the PHH culture medium for infection. The cells were then cultured for 24 hours in cell incubator. Then the cell culture supernatant was removed. The HBV-infected PHH were cultured with sandwich culture method with PHH culture medium containing 1% DMSO and 0.25 mg/mL matrix gel for 72 hours. The supernatant was then refreshed with PHH culture medium containing different concentrations of testing compounds for two times with 72-hour interval. At the end of treatment, the supernatant was collected for viral markers measurements, including HBsAg, HBeAg, HBV DNA and cytotoxicity. HBsAg and HBeAg were detected using alphalisa method using their specific antibodies. For HBV DNA detection, HBV DNA Quantitative Fluorescence Diagnostic Kit (Sansure Biotech Inc.) was used following the manufacture's protocol. Cytotoxicity was determined using Cell Counting Kit-8 (CCK8, Dojindo Molecular Technologies, Inc.).

[2] = Human microsome stability assay; type: in vitro ADME; conditions: 1 μM compound, 0.5 mg/mL microsomal protein, 37° C.; detection limit 6.15 mL/min/kg
Procedure: Human Microsome Stability Assay The human microsomal stability assay is used for early assessment of metabolic stability of a test compound in human liver microsomes. Human liver microsomes (Cat. […] The reactions were initiated by adding NADPH regenerating system. […] Following precipitation and centrifugation, the amount of compound remaining in the samples were determined by LC-MS/MS. Controls of no NADPH regenerating system at zero and 30 minutes were also prepared and analyzed.

SMILES	IC50 (HBsAg) [nM]	IC50 (HBeAg) [nM]	TI (CC50/IC50 HBsAg) [1]	Clearance of human microsome [2] [mL/min/kg]
CS(=O)(=O)Cc1nsc(C(=O)NC23CC(c4nc(-c5ccc(Cl)cc5)no4)(C2)C3)n1 [Example 33, N-[3-[3-(4-chlorophenyl)-1,2,4-oxadiazol-5-yl]-1-bicyclo[1.1.1]pentanyl]-3-(methylsulfonylmethyl)-1,2,4-thiadiazole-5-carboxamide]	440	370	>22.73	≤6.15
CS(=O)(=O)C1(c2ccc(C(=O)NC34CC(c5nc(-c6ccc(Cl)cc6)ns5)(C3)C4)o2)CC1 [Example 18, N-[3-[3-(4-chlorophenyl)-1,2,4-thiadiazol-5-yl]-1-bicyclo[1.1.1]pentanyl]-5-(1-methylsulfonylcyclopropyl)furan-2-carboxamide]	190	120	39.05	8.8
CS(=O)(=O)C1(c2ccc(C(=O)NC34CC(c5csc(-c6ccc(Cl)cc6)n5)(C3)C4)o2)CC1 [Example 27, N-[3-[2-(4-chlorophenyl)thiazol-4-yl]-1-bicyclo[1.1.1]pentanyl]-5-(1-methylsulfonylcyclopropyl)furan-2-carboxamide]	130	90	39.46	≤6.15
CS(=O)(=O)C1(c2ccc(C(=O)NC34CC(c5ncc(-c6ccc(Cl)cc6)s5)(C3)C4)o2)CC1 [Example 19, N-[3-[5-(4-chlorophenyl)thiazol-2-yl]-1-bicyclo[1.1.1]pentanyl]-5-(1-methylsulfonylcyclopropyl)furan-2-carboxamide]	210	160	>47.62	≤6.15
CS(=O)(=O)C1(c2ccc(C(=O)NC34CC(c5nnn(-c6ccc(Cl)cc6)n5)(C3)C4)o2)CC1 [Example 44, N-[3-[2-(4-chlorophenyl)tetrazol-5-yl]-1-bicyclo[1.1.1]pentanyl]-5-(1-methylsulfonylcyclopropyl)furan-2-carboxamide]	350	270	12.20	≤6.15
CS(=O)(=O)C1(c2ccc(C(=O)NC34CC(c5nc(-c6cccc(Cl)c6)cs5)(C3)C4)o2)CC1 [Example 2, N-[3-[4-(3-chlorophenyl)thiazol-2-yl]-1-bicyclo[1.1.1]pentanyl]-5-(1-methylsulfonylcyclopropyl)furan-2-carboxamide]	350	200	20.66	≤6.15
CS(=O)(=O)C1(c2ccc(C(=O)NC34CC(c5csc(-c6ccccc6)n5)(C3)C4)o2)CC1 [Example 26, 5-(1-methylsulfonylcyclopropyl)-N-[3-(2-phenylthiazol-4-yl)-1-bicyclo[1.1.1]pentanyl]furan-2-carboxamide]	780	530	8.91	≤6.15
CS(=O)(=O)C1(c2ccc(C(=O)NC34CC(c5ccnc(-c6ccc(Cl)cc6)n5)(C3)C4)o2)CC1 [Example 47, N-[3-[2-(4-chlorophenyl)pyrimidin-4-yl]-1-bicyclo[1.1.1]pentanyl]-5-(1-methylsulfonylcyclopropyl)furan-2-carboxamide]	150	140	59.67	≤6.15
CS(=O)(=O)C1(c2ccc(C(=O)NC34CC(c5nc(-c6ccc(Cl)c(Cl)c6)cs5)(C3)C4)o2)CC1 [Example 8, N-[3-[4-(3,4-dichlorophenyl)thiazol-2-yl]-1-bicyclo[1.1.1]pentanyl]-5-(1-methylsulfonylcyclopropyl)furan-2-carboxamide]	160	110	16.69	≤6.15
CS(=O)(=O)C1(c2ccc(C(=O)NC34CC(c5ccn(-c6ccc(Cl)cc6)n5)(C3)C4)o2)CC1 [Example 42, N-[3-[1-(4-chlorophenyl)pyrazol-3-yl]-1-bicyclo[1.1.1]pentanyl]-5-(1-methylsulfonylcyclopropyl)furan-2-carboxamide]	590	340	13.39	8.21
CS(=O)(=O)C1(c2nsc(C(=O)NC34CC(c5nc(-c6ccc(F)cc6)no5)(C3)C4)n2)CC1 [Example 35, N-[3-[3-(4-fluorophenyl)-1,2,4-oxadiazol-5-yl]-1-bicyclo[1.1.1]pentanyl]-3-(1-methylsulfonylcyclopropyl)-1,2,4-thiadiazole-5-carboxamide]	50	40	79.80	≤6.15
CS(=O)(=O)C1(c2ccc(C(=O)NC34CC(c5nc(-c6ccccc6Cl)cs5)(C3)C4)o2)CC1 [Example 3, N-[3-[4-(2-chlorophenyl)thiazol-2-yl]-1-bicyclo[1.1.1]pentanyl]-5-(1-methylsulfonylcyclopropyl)furan-2-carboxamide]	670	500	8.85	≤6.15
CS(=O)(=O)C1(c2nsc(C(=O)NC34CC(c5ccn(-c6ccc(Cl)cc6)n5)(C3)C4)n2)CC1 [Example 43, N-[3-[1-(4-chlorophenyl)pyrazol-3-yl]-1-bicyclo[1.1.1]pentanyl]-3-(1-methylsulfonylcyclopropyl)-1,2,4-thiadiazole-5-carboxamide]	90	80	>111.11	≤6.15
CS(=O)(=O)C1(c2nsc(C(=O)NC34CC(c5nc(-c6cccc(Cl)c6)cs5)(C3)C4)n2)CC1 [Example 4, N-[3-[4-(3-chlorophenyl)thiazol-2-yl]-1-bicyclo[1.1.1]pentanyl]-3-(1-methylsulfonylcyclopropyl)-1,2,4-thiadiazole-5-carboxamide]	170	120	29.65	≤6.15
CS(=O)(=O)C1(c2ccc(C(=O)NC34CC(c5nc(-c6ccc(Cl)cn6)cs5)(C3)C4)o2)CC1 [Example 10, N-[3-[4-(5-chloro-2-pyridyl)thiazol-2-yl]-1-bicyclo[1.1.1]pentanyl]-5-(1-methylsulfonylcyclopropyl)furan-2-carboxamide]	280	200	31.11	≤6.15
